Laboratory results taken from US11998539B2, “Substituted aminoquinolones as DGKalpha inhibitors for immune activation” (Bayer Aktiengesellschaft, priority 2019, dated 2024).

Molecular target: DGKα (Homo sapiens (Human), UniProt P23743)
Assay: Human DGKα kinase activity inhibition assay (ADP-Glo)
Format: biochemical
Conditions: recombinant full-length human DGKα, 55 μM ATP, 7 μM 1,2-dioleoyl-sn-glycerol, read-out: IC50 values of examples in in vitro human DGKa kinase activity inhibition assays
How it was run: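 Recombinant full-length human DGKα (C-terminal FLAG, from insect cells) phosphorylated 1,2-dioleoyl-sn-glycerol presented in octyl-glucopyranoside micelles. ADP formed was quantified by ADP-Glo luminescence. Compounds were added from 100-fold DMSO stocks.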

Sequence of DGKα (P23743 other isoform, or with tags, fused parts or gaps): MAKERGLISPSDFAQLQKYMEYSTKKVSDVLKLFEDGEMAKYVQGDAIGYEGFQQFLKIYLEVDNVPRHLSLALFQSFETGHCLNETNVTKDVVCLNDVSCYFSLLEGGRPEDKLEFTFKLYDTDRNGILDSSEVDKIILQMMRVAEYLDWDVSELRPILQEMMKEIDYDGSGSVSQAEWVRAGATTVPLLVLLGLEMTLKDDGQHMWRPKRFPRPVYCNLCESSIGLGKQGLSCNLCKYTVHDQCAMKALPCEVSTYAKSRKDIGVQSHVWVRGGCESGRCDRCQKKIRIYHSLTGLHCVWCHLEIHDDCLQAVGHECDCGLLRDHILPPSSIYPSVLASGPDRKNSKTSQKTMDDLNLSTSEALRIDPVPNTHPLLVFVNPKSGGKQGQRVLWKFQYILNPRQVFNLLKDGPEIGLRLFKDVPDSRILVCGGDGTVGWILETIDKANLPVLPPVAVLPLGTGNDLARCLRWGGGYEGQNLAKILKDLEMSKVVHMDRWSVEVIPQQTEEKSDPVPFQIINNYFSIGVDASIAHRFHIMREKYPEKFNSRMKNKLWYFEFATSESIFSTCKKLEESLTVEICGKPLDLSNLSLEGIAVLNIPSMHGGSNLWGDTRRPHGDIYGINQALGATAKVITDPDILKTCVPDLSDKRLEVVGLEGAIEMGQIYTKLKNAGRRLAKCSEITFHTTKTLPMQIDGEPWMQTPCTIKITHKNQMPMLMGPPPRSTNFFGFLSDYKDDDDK

Structure (SMILES): Cc1ccc2oc(C3(C)CCN(c4c(C#N)c(=O)n(C)c5c(OC6CC6)cccc45)CC3)nc2c1 [Example 262, 8-(cyclopropyloxy)-1-methyl-4-[4-methyl-4-(5-methyl-1,3-benzoxazol-2-yl)piperidin-1-yl]-2-oxo-1,2-dihydroquinoline-3-carbonitrile]
- IC50: 0.036 µM

Structure (SMILES): Cc1ccc2oc(C3(C)CCN(c4c(C#N)c(=O)n(C)c5c(C)cccc45)CC3)nc2c1 [Example 263, 1,8-dimethyl-4-[4-methyl-4-(5-methyl-1,3-benzoxazol-2-yl)piperidin-1-yl]-2-oxo-1,2-dihydroquinoline-3-carbonitrile]
- IC50: 0.042 µM

Structure (SMILES): Cn1c(=O)c(C#N)c(N2CCC(c3ccccc3)CC2)c2ccc(OC3CC3)cc21 [Example 264, 7-(cyclopropyloxy)-1-methyl-2-oxo-4-(4-phenylpiperidin-1-yl)-1,2-dihydroquinoline-3-carbonitrile]
- IC50: 0.049 µM

Structure (SMILES): COCCc1cccc2oc(C3CCN(c4c(C#N)c(=O)n(C)c5ccccc45)CC3)nc12 [Example 265, 4-{4-[4-(2-methoxyethyl)-1,3-benzoxazol-2-yl]piperidin-1-yl}-1-methyl-2-oxo-1,2-dihydroquinoline-3-carbonitrile]
- IC50: 0.049 µM

Structure (SMILES): CC[C@H](C)c1ccc2c(N3CCC(C)(c4nc5cc(C)ccc5o4)CC3)c(C#N)c(=O)n(C)c2c1 [Example 266, 7-[(2S)-butan-2-yl]-1-methyl-4-[4-methyl-4-(5-methyl-1,3-benzoxazol-2-yl)piperidin-1-yl]-2-oxo-1,2-dihydroquinoline-3-carbonitrile]
- IC50: 0.053 µM

Structure (SMILES): Cc1ccc2oc(C3(C)CCN(c4c(C#N)c(=O)n(C)c5ccc(OC6COC6)cc45)CC3)nc2c1 [Example 267, 1-methyl-4-[4-methyl-4-(5-methyl-1,3-benzoxazol-2-yl)piperidin-1-yl]-6-[(oxetan-3-yl)oxy]-2-oxo-1,2-dihydroquinoline-3-carbonitrile]
- IC50: 0.064 µM

Structure (SMILES): Cc1ccc2oc(C3(C)CCN(c4c(C#N)c(=O)n(C)c5ccc(OCC6(C#N)CC6)cc45)CC3)nc2c1 [Example 268, 6-[(1-cyanocyclopropyl)methoxy]-1-methyl-4-[4-methyl-4-(5-methyl-1,3-benzoxazol-2-yl)piperidin-1-yl]-2-oxo-1,2-dihydroquinoline-3-carbonitrile]
- IC50: 0.065 µM

Structure (SMILES): Cc1ccc2oc(C3(C)CCN(c4c(C#N)c(=O)n(C)c5cc(N6C[C@H](O)CC6=O)ccc45)CC3)nc2c1 [Example 269, 7-[(4R)-4-hydroxy-2-oxopyrrolidin-1-yl]-1-methyl-4-[4-methyl-4-(5-methyl-1,3-benzoxazol-2-yl)piperidin-1-yl]-2-oxo-1,2-dihydroquinoline-3-carbonitrile]
- IC50: 0.071 µM

Structure (SMILES): CCCOc1ccc2c(N3CCC(c4nc5ccccc5s4)CC3)c(C#N)c(=O)n(C)c2c1 [Example 270, 4-[4-(1,3-benzothiazol-2-yl)piperidin-1-yl]-1-methyl-2-oxo-7-propoxy-1,2-dihydroquinoline-3-carbonitrile]
- IC50: 0.072 µM

Structure (SMILES): Cc1ccc2oc(C3(C)CCN(c4c(C#N)c(=O)n(C)c5c(C6CC6)cccc45)CC3)nc2c1 [Example 272, 8-cyclopropyl-1-methyl-4-[4-methyl-4-(5-methyl-1,3-benzoxazol-2-yl)piperidin-1-yl]-2-oxo-1,2-dihydroquinoline-3-carbonitrile]
- IC50: 0.113 µM

Structure (SMILES): CCCOc1cccc2c(N3CCC(C)(c4nc5cc(C)ccc5o4)CC3)c(C#N)c(=O)n(C)c12 [Example 273, 1-methyl-4-[4-methyl-4-(5-methyl-1,3-benzoxazol-2-yl)piperidin-1-yl]-2-oxo-8-propoxy-1,2-dihydroquinoline-3-carbonitrile]
- IC50: 0.119 µM

Structure (SMILES): Cc1ccc2oc(C3(C)CCN(c4c(C#N)c(=O)n(C)c5ccc(OC6CC6)cc45)CC3)nc2c1 [Example 274, 6-(cyclopropyloxy)-1-methyl-4-[4-methyl-4-(5-methyl-1,3-benzoxazol-2-yl)piperidin-1-yl]-2-oxo-1,2-dihydroquinoline-3-carbonitrile]
- IC50: 0.152 µM
